One data set deals with T1, hTLR4 (Homo sapiens, UniProt O00206+Q9Y6Y9).
T1 construct: host or cells: HEK-Blue hTLR4
In words: HEK-Blue hTLR4 SEAP reporter agonist assay. Format: cell-based. The note with it: HEK-Blue hTLR4 cells, highest concentration 50 μM. From the text: (§1) HEK-Blue™ hTLR4, 7, 8 and 9 cell lines were purchased from InvivoGen (Hong Kong). The cells express the human TLR gene and NF-κB/AP-1-inducible SEAP (secreted embryonic alkaline phosphatase) reporter gene. SEAP levels produced upon TLR stimulation can be determined by QUANTI-Blue™. In the cell-based assay, the main reagents used were QUANTI-Blue™ (InvivoGen) and ATPlite 1 Step (Perkin Elmer). The main instruments used were the microplate reader SpectraMax 340PC (Molecular Device) and Envision (Perkin Elmer). Motolimod and DN052 were synthesized in house. […] The compounds were in 10 mM stock solution in DMSO and stored at − 20°C. The compounds were serially diluted in the concentration range from 0.5 nM to 15 μM (up to 50 μM in the hTLR4, hTLR7 and hTLR9 assays) and added to 96-well plates. DMSO was used as the negative control. LPS-EK, R848, motolimod and ODN2006 were used as the positive control for TLR4, 7, 8 and 9, respectively. The cells were cultured and treated with the compounds at 37°C, 5%CO2 for 24 h. […] After 1.5 h of incubation, the optical density was measured using the spectrophotometer at 650 nm in the microplate reader of SpectraMax 340PC. The cell viability of each well was determined using ATPlite 1 Step following the manufacturer’s instruction. The luminescence signal in each well of plates was measured in the microplate reader of Envision.

The next data set has as its target T2, hTLR9 (Homo sapiens, UniProt Q9NR96).
T2 construct: host or cells: HEK-Blue hTLR9
T2 sequence (Q9NR96 26-1032): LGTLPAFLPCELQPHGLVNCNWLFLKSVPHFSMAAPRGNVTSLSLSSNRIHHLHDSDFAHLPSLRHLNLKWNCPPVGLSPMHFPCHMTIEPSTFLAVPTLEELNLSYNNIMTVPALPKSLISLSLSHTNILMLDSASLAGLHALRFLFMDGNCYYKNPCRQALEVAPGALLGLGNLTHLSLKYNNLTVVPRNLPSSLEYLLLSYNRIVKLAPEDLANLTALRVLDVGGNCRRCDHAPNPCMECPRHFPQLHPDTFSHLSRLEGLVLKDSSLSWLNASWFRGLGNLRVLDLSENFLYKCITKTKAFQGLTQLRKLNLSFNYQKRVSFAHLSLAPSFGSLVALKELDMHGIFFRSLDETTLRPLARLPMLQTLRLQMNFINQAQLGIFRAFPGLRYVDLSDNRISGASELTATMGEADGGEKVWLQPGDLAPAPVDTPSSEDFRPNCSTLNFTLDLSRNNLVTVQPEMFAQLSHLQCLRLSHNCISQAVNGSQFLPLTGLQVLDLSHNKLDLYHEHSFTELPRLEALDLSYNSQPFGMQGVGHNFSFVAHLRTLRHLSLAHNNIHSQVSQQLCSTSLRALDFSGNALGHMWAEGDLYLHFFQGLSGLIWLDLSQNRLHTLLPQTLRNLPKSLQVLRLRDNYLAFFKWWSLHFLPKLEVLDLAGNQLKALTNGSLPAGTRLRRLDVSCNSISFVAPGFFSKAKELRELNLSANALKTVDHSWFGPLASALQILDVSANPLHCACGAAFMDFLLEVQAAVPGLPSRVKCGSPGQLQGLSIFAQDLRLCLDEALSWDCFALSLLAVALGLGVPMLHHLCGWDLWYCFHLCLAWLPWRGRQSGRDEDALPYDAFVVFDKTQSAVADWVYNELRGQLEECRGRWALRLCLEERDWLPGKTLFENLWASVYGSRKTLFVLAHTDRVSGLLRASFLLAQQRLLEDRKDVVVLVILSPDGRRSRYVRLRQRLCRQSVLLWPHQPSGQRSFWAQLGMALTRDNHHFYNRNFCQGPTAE
In words: HEK-Blue hTLR9 SEAP reporter agonist assay. In kind it is cell-based. The note with it: HEK-Blue hTLR9 cells, highest concentration 50 μM.
From the text: as §1

Another data set can be described thus: in vivo. Details: species or system Sprague Dawley rats. The note with it: Sprague Dawley, rat. Here is the method:
To determine the in vivo pharmacokinetic profiles, the compounds were formulated with 11% captisol and then administered iv, ip, sc and po into Sprague Dawley rats or iv and sc into mice or cynomolgus monkeys, respectively. Blood samples were collected before dosing and 0.083 h, 0.25 h, 0.5 h, 1 h, 2 h, 4 h, 6 h, 8 h, 12 h and 24 h after dosing. Blood samples were collected in tubes containing K2EDTA. Plasma was isolated from the blood samples by centrifugation of the blood samples at 2400 × g for 5 min at 4°C. Plasma samples were measured using LC-MS/MS (Waters ACQUITY UPLC and TQ 6500+) to determine the concentration of compounds. The data was analyzed using WinNonlin 7.0 to calculate the PK parameters such as AUC0-t, AUC0-∞, MRT0-∞, Cmax, Tmax, t1/2 and F.

T1 sequence (O00206 24-839): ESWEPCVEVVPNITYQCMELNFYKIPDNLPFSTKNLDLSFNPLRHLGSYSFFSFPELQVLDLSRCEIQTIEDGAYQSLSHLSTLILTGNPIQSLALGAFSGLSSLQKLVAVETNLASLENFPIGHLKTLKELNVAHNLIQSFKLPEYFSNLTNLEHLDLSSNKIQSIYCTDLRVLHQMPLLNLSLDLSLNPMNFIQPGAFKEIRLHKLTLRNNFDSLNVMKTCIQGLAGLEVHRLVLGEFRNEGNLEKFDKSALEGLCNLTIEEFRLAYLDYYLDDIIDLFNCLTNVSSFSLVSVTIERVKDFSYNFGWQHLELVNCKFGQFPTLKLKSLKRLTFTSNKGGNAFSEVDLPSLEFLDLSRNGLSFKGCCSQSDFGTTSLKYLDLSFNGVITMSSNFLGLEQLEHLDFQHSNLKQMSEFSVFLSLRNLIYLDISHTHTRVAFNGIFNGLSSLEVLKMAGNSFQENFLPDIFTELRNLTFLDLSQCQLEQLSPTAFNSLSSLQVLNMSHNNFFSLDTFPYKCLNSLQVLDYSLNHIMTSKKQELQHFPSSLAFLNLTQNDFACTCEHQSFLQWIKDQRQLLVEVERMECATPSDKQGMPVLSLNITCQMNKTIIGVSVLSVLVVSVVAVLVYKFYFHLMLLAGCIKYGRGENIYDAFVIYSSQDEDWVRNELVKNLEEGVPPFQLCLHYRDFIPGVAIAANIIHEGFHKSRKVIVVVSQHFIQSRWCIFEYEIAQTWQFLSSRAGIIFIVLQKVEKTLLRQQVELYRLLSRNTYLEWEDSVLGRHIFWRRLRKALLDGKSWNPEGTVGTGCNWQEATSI
T1 sequence (Q9Y6Y9 17-160 limits assumed): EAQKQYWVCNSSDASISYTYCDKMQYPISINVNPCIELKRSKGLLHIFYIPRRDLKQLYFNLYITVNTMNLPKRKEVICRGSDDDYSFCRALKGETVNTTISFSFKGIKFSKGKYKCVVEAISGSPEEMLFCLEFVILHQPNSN

Broadly, the EC50 is the concentration at which the effect is half-maximal. Read a low EC50 as a more potent agent. The bioavailability is dose-corrected exposure relative to a reference, in per cent. A lower bioavailability goes with little systemic uptake. As usually defined, the Vd is a proportionality between amount in the body and measured concentration, not a real space. Low readings indicate little distribution into tissue, high ones wide distribution into tissue. One may read the clearance as the rate of elimination divided by the concentration. By AUC(0-inf) is commonly meant the area under the concentration-time curve extrapolated to infinity. Higher therefore signals high exposure. For orientation: AUC(0-t) means the area under the concentration-time curve up to a stated or last time point. A lower AUC(0-t) goes with less exposure. For orientation: Cmax means the peak of the concentration-time curve. What is called Tmax is the time from dosing to the highest level. The term half-life denotes the time in which the quantity being followed falls by half. At hTLR4, `CCCN(CCC)C(=O)C1=Cc2ccc(-c3ccc(C(=O)N4CCCC4)cc3)cc2N=C(N)C1` [Motolimod, motolimod] yielded an EC50 of over 50 µM. Moreover, the EC50 at hTLR9 was over 50 µM. Further, the bioavailability in the data set “in vivo” came to 57.4%. In “in vivo” (iv, 2.5 mg/kg), this compound had a volume of distribution (Vd) of 18.6 L/kg and a clearance of 45.5 mL/min/kg. In “in vivo” (sc, 10 mg/kg), the area under the curve AUC(0-inf) is 2130 ng·h/mL, the AUC(0-t) worked out at 2130 ng·h/mL, the Cmax is 720 ng/mL and the Tmax came out at 1.17 h. This compound showed a half-life in “in vivo” (sc, 10 mg/kg) of 0.92 h.

(Values after article PMC8607422, “Development of a novel TLR8 agonist for cancer immunotherapy” (Molecular Biomedicine, 2020).)
